{"source": "patent US10301520B2", "about": "“Compositions of hydrochlorofluoroolefins” (Arkema Inc., priority 2008, dated 2019)", "key": {"[1]": {"assay": "Vapor pressure in high-pressure cell", "format": "physicochemical", "description": "A high-pressure cell equipped with a certified pressure gauge was evacuated by a vacuum pump to remove all permanent gases. 14.21 g of 1233xf and 9.17 g of E-1233zd were then loaded into the cell individually by a stainless steel syringe pump. The high-pressure cell was placed in an orbital shaker in which temperature was controlled at the accuracy of 0.1° C. […] At each temperature the pressure was measured after one hour in order to achieve equilibrium. The accuracy of the pressure gauge was + or −0.1 psia. […] The measured pressure can be seen in Table 1."}, "AMES testing": {"assay": "AMES testing", "format": "cell-based", "details": "compared with the cis isomer", "description": "A major portion of the HCFO-1233zd of the present invention is the trans isomer. […] A preferred ratio of trans and cis isomers of HCFO-1233zd is less than about 30% weight of the combination of the cis isomer, and preferably less than about 10% of the cis isomer. The most preferred ratio is less than about 3% of the cis isomer. […] The preferred Kauri-butanol value of the composition of the present invention is above 15 and preferably above 20."}, "[2]": {"assay": "Flash point, ASTM D3278-96", "format": "physicochemical", "description": "Flammability of a solvent is related to safety of its use. For most application, it is desirable that a solvent have as low a flammable as possible. The flammability of E-1233zd was characterized by flash point measured according to ASTM D3278-96. The flash point of TDCE and HCFC 225 were used as comparative examples."}, "[3]": {"assay": "Defluxing of solder flux from stainless steel plates", "description": "A small quantity of commercial solder flux was deposited on the surface of several 30×10 mm stainless steel plates. The mass of each plate was determined with a precision of 0.1 mg before deposition and corresponds to the tare. The plates were heated to 250° C. until fusion of the metal from the solder flux (between 1 and 2 min.). The metal could then be easily removed from the plates and only the flux remained on them.\nThe plates prepared with this method were dried in the open air at ambient temperature for 16 hours. The mass of each dried plate was determined with a precision of 0.1 mg before and after deposition. The difference between these two values corresponds to the initial mass of flux.\nOnce the initial mass was obtained, half of the steel plates are immersed in a beaker filled with a cleaning composition at ambient temperature for 30 minutes and the other half of the plates immersed in a beaker filled with the cleaning solution for 60 minutes. After the immersion, the steel plates were removed from the beakers and dried in the open air for 5 minutes. Thereafter, the mass of each plate was determined to evaluate the percentage of flux removed during the test."}, "[4]": {"assay": "Cleaning of mineral oil from stainless steel plates", "details": "immersion 5 minutes at ambient temperature", "description": "(§1) A small quantity of commercial lubricant oil was deposited on the surface of several 30×10 mm stainless steel plates. The mass of each plate was determined with a precision of 0.1 mg before and after deposition. The difference between these two values corresponds to the initial mass of lubricant.\n(§2) Once the initial mass is obtained, each steel plate is immersed in a beaker filled with a cleaning composition at ambient temperature for 5 minutes. Thereafter, the steel plates were removed from the beaker and dried in the open air for 5 minutes. Thereafter, the mass of each plate was determined to evaluate the percentage of lubricant oil removed during the test.\nA procedure similar to Example 5 was followed using commercial natural mineral oil for high pressure."}, "[5]": {"assay": "Evaporator cleaning (flushing)", "details": "flushing 10 minutes at ambient temperature; compared with HFC-245fa", "description": "An evaporator from a refrigeration system contains a known quantity of 300 SUS mineral oil. The evaporator could be flushed with flushing agent for 10 minutes at ambient temperature. Following the flushing period, the quantity of oil and residue removed would be determined. This could be done by measuring the weight of the evaporator following flushing and evacuation of flushing agent and/or by stripping the flushing agent from the removed oil and residue and weighing that. HFC-245fa and trans-HCFO-1233zd would be used as flushing agents."}, "[6]": {"assay": "Cleaning of silicone oil from stainless steel plates", "details": "silicon oil; immersion 5 minutes at ambient temperature", "description": "as §1, §2\nA procedure similar to Example 5 was followed using silicon oil. The results were summarized as in Table 6"}, "[7]": {"assay": "Degreasing of lubricant oil from stainless steel plates", "details": "immersion 5 minutes at ambient temperature", "description": "as §1, §2"}, "[8]": {"assay": "Residual flushing agent after drying of evaporator", "details": "25 °C, air flow, 10 minutes drying; compared with trans-HCFO-1233zd", "description": "To a clean evaporator from an air conditioning, a measured quantity of flushing liquid would be added to simulate conditions following an open-loop evaporator flushing procedure. The evaporator would be maintained at 25° C. with a slow flow of air passing through the evaporator to assist in drying. The evaporator would be dried such as for 10 minutes and then weighed to measure the quantity of flushing agent remaining."}}, "data": [{"molecule": "C=C(Cl)C(F)(F)F", "note": "[1233xf, 2-chloro-3,3,3-trifluoropropene, reference compound]", "values": [{"measurement": "Pressure", "setting": "[1]; 5.0 °C", "result": 11.5, "unit": "psia"}, {"measurement": "Pressure", "setting": "[1]; 15.0 °C", "result": 16.8, "unit": "psia"}, {"measurement": "Pressure", "setting": "[1]; 18.5 °C", "result": 18.3, "unit": "psia"}, {"measurement": "Pressure", "setting": "[1]; 25.0 °C", "result": 23.8, "unit": "psia"}, {"measurement": "Pressure", "setting": "[1]; 35.0 °C", "result": 32.7, "unit": "psia"}, {"measurement": "Pressure versus atmospheric pressure", "setting": "[1]; temperature range 15 to 25 °C", "result": "> 14.7", "unit": "psia"}]}, {"molecule": "FC(F)(F)/C=C/Cl", "note": "[E-1233zd, 1-chloro-3,3,3-trifluoropropene]", "values": [{"measurement": "Genotoxicity in AMES testing", "setting": "AMES testing", "result": "significantly lower genotoxicity"}, {"measurement": "Flash point", "setting": "[2]", "result": "No"}, {"measurement": "Removal rate for 30 mn", "setting": "[3]; immersion 30 minutes at ambient temperature", "result": 36.04, "unit": "%"}, {"measurement": "Removal rate for 60 mn", "setting": "[3]; immersion 60 minutes at ambient temperature", "result": 26.24, "unit": "%"}, {"measurement": "Pressure", "setting": "[1]; 5.0 °C", "result": 9.1, "unit": "psia"}, {"measurement": "Pressure", "setting": "[1]; 15.0 °C", "result": 13.7, "unit": "psia"}, {"measurement": "Pressure", "setting": "[1]; 18.5 °C", "result": 14.7, "unit": "psia"}, {"measurement": "Pressure", "setting": "[1]; 25.0 °C", "result": 19.7, "unit": "psia"}, {"measurement": "Pressure", "setting": "[1]; 35.0 °C", "result": 27.5, "unit": "psia"}, {"measurement": "Pressure versus atmospheric pressure", "setting": "[1]; temperature range 5 to 15 °C", "result": "lower than atmospheric"}, {"measurement": "Removal rate", "setting": "[4]", "result": 57.2, "unit": "%"}, {"measurement": "Percentage of oil and residue removed during flushing", "setting": "[5]", "result": "greater percentage"}, {"measurement": "Removal rate", "setting": "[6]", "result": 99.10, "unit": "%"}, {"measurement": "Removal rate", "setting": "[7]", "result": 99.10, "unit": "%"}]}, {"molecule": "CC(F)(Cl)Cl", "note": "[HCFC 141b, 1,1-dichloro-1-fluoroethane, reference compound]", "values": [{"measurement": "Removal rate", "setting": "[6]", "result": 98.40, "unit": "%"}, {"measurement": "Removal rate", "setting": "[7]", "result": 99.60, "unit": "%"}]}, {"molecule": "COC(C)=O", "note": "[Methyl acetate]", "values": [{"measurement": "Removal rate", "setting": "[4]", "result": 31.67, "unit": "%"}]}, {"molecule": "Cl/C=C/Cl", "note": "[TDCE, trans-1,2-dichloroethylene]", "values": [{"measurement": "Flash point", "setting": "[2]", "result": "Yes"}, {"measurement": "Removal rate", "setting": "[4]", "result": 88.51, "unit": "%"}]}, {"molecule": "FC(F)(F)/C=C/Cl", "note": "[cis-HCFO-1233zd, 1-chloro-3,3,3-trifluoropropene]", "values": [{"measurement": "Quantity of flushing agent remaining after drying", "setting": "[8]", "result": "more cis-HCFO-1233zd would remain"}]}, {"molecule": "dichloropentafluoropropane [HCFC 225]", "values": [{"measurement": "Flash point", "setting": "[2]", "result": "No"}]}]}
